Assay results published in patent publication US12723063B2, “GIPR-agonist compounds” (Eli Lilly and Company, priority 2019, dated 2026).
pKi: −log10 of the molar value. *1 amine or outer side, *2 acyl side, *3 side chain or, on linkers, in order; H or OH if unused. Where a SMILES comes first, the peptide text is derived from it. Side-chain parts run from the residue outwards. [ ]: non-standard residue; d: D form. The star is where a group is joined. C20 diacid = O=C(O)CCCCCCCCCCCCCCCCCCC(=O)*; αMePhe(2-F) = C[C@](N)(Cc1ccccc1F)C(=O)O; γGlu = O=C(O)[C@H](CCC(=O)[*:2])N[*:1]; αMeF = C[C@](N)(Cc1ccccc1)C(=O)O; 4Pal = N[C@@H](Cc1ccncc1)C(=O)O; AEEA = NCCOCCOCC(=O)O; Aib = CC(C)(N)C(=O)O

Molecular target: T1, human GcgR (Homo sapiens, UniProt P47871)
T1 construct: expressed in transfected cells; crude membranes
Test: [125I]-Glucagon binding, SPA with WGA beads, 0.1% bacitracin
Conditions: geometric mean, read-out: hGcgR Ki
In short: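 SPA competition binding with WGA beads on crude membranes from HEK293 cells stably expressing hGcgR. Buffer: 25 mM HEPES pH 7.4, 2.5 mM CaCl2, 1 mM MgCl2, 0.1% bacitracin, 0.003% Tween-20; 10-point 3-fold dilutions, NSB with 1 μM Gcg.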

T1 sequence (P47871 26-477): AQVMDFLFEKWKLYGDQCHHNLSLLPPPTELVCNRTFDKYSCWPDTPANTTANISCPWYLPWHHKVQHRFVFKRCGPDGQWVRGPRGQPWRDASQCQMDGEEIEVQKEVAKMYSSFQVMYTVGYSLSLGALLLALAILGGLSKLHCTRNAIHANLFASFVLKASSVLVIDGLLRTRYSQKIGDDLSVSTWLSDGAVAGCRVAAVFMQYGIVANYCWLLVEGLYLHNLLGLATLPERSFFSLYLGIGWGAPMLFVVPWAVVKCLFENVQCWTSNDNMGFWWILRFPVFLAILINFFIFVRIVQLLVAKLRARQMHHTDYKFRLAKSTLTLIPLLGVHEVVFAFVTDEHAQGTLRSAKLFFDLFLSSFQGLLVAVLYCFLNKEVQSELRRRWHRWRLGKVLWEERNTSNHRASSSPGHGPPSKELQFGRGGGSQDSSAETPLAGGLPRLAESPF

SMILES	pKi
CC[C@H](C)[C@H](NC(=O)[C@H](CO)NC(=O)[C@H](Cc1ccc(O)cc1)NC(=O)[C@H](CC(=O)O)NC(=O)[C@H](CO)NC(=O)[C@@H](NC(=O)[C@](C)(Cc1ccccc1F)NC(=O)[C@@H](NC(=O)CNC(=O)[C@H](CCC(=O)O)NC(=O)C(C)(C)NC(=O)[C@@H](N)Cc1ccc(O)cc1)[C@@H](C)O)[C@@H](C)CC)C(=O)N[C@@H](C)C(=O)N[C@@H](CC(C)C)C(=O)N[C@@H](CC(=O)O)C(=O)N[C@@H](CCCCN)C(=O)N[C@@H](CCCCNC(=O)COCCOCCNC(=O)COCCOCCNC(=O)CC[C@H](NC(=O)CCCCCCCCCCCCCCCCCCC(=O)O)C(=O)O)C(=O)N[C@@H](Cc1c[nH]cn1)C(=O)N[C@@H](CCC(N)=O)C(=O)NC(C)(C)C(=O)N[C@@H](CC(=O)O)C(=O)N[C@@H](Cc1ccccc1)C(=O)N[C@H](C(=O)N[C@@H](CCC(=O)O)C(=O)N[C@@H](Cc1ccc(O)cc1)C(=O)N[C@@H](CC(C)C)C(=O)N[C@@H](CC(C)C)C(=O)N[C@@H](CCC(=O)O)C(=O)NCC(=O)NCC(=O)N1CCC[C@H]1C(=O)N[C@@H](CO)C(=O)N[C@@H](CO)C(=O)NCC(=O)N[C@@H](C)C(=O)N1CCC[C@H]1C(=O)N1CCC[C@H]1C(=O)N1CCC[C@H]1C(=O)N[C@@H](CO)C(N)=O)C(C)C [Example 37] (H-Y[Aib]EGT[αMePhe(2-F)]ISDYSIALDKK([AEEA-AEEA-γGlu-C20 diacid])HQ[Aib]DFVEYLLEGGPSSGAPPPS-NH2)	7.29
CC[C@H](C)[C@H](NC(=O)[C@H](CO)NC(=O)[C@H](Cc1ccc(O)cc1)NC(=O)[C@H](CC(=O)O)NC(=O)[C@H](CO)NC(=O)[C@@H](NC(=O)[C@](C)(Cc1ccccc1F)NC(=O)[C@@H](NC(=O)CNC(=O)[C@H](CCC(=O)O)NC(=O)C(C)(C)NC(=O)[C@@H](N)Cc1ccc(O)cc1)[C@@H](C)O)[C@@H](C)CC)C(=O)N[C@@H](C)C(=O)N[C@@H](CC(C)C)C(=O)N[C@@H](CC(=O)O)C(=O)N[C@@H](CCCCN)C(=O)N[C@@H](CCCCNC(=O)COCCOCCNC(=O)COCCOCCNC(=O)CC[C@H](NC(=O)CCCCCCCCCCCCCCCCCCC(=O)O)C(=O)O)C(=O)N[C@@H](Cc1c[nH]cn1)C(=O)N[C@@H](CCC(N)=O)C(=O)NC(C)(C)C(=O)N[C@@H](CC(=O)O)C(=O)N[C@@H](Cc1ccccc1)C(=O)N[C@H](C(=O)N[C@@H](CCC(=O)O)C(=O)N[C@@H](Cc1ccncc1)C(=O)N[C@@H](CC(C)C)C(=O)N[C@@H](CC(C)C)C(=O)N[C@@H](CCC(=O)O)C(=O)N[C@H](C(=O)NCC(=O)N1CCC[C@H]1C(=O)N[C@@H](CO)C(=O)N[C@@H](CO)C(=O)NCC(=O)N[C@@H](C)C(=O)N1CCC[C@H]1C(=O)N1CCC[C@H]1C(=O)N1CCC[C@H]1C(=O)N[C@@H](CO)C(N)=O)[C@@H](C)O)C(C)C [Example 38] (H-Y[Aib]EGT[αMePhe(2-F)]ISDYSIALDKK([AEEA-AEEA-γGlu-C20 diacid])HQ[Aib]DFVE[4Pal]LLETGPSSGAPPPS-NH2)	6.74
CC[C@H](C)[C@H](NC(=O)[C@H](CO)NC(=O)[C@H](Cc1ccc(O)cc1)NC(=O)[C@H](CC(=O)O)NC(=O)[C@H](CO)NC(=O)[C@@H](NC(=O)[C@](C)(Cc1ccccc1F)NC(=O)[C@@H](NC(=O)CNC(=O)[C@H](CCC(=O)O)NC(=O)C(C)(C)NC(=O)[C@@H](N)Cc1ccc(O)cc1)[C@@H](C)O)[C@@H](C)CC)C(=O)N[C@@H](C)C(=O)N[C@@H](CC(C)C)C(=O)N[C@@H](CC(=O)O)C(=O)N[C@@H](CCCCN)C(=O)N[C@@H](CCCCNC(=O)COCCOCCNC(=O)COCCOCCNC(=O)CC[C@H](NC(=O)CCCCCCCCCCCCCCCCCCC(=O)O)C(=O)O)C(=O)N[C@@H](Cc1c[nH]cn1)C(=O)N[C@@H](CCC(N)=O)C(=O)NC(C)(C)C(=O)N[C@@H](CC(=O)O)C(=O)N[C@@H](Cc1ccccc1)C(=O)N[C@H](C(=O)N[C@@H](CCC(=O)O)C(=O)N[C@@H](Cc1ccncc1)C(=O)N[C@@H](CC(C)C)C(=O)N[C@@H](CC(C)C)C(=O)N[C@@H](CCC(=O)O)C(=O)NCC(=O)NCC(=O)N1CCC[C@H]1C(=O)N[C@@H](CO)C(=O)N[C@@H](CO)C(=O)NCC(=O)N[C@@H](C)C(=O)N1CCC[C@H]1C(=O)N1CCC[C@H]1C(=O)N1CCC[C@H]1C(=O)N[C@@H](CO)C(N)=O)C(C)C [Example 39] (H-Y[Aib]EGT[αMePhe(2-F)]ISDYSIALDKK([AEEA-AEEA-γGlu-C20 diacid])HQ[Aib]DFVE[4Pal]LLEGGPSSGAPPPS-NH2)	7.12
CC[C@H](C)[C@H](NC(=O)[C@H](CO)NC(=O)[C@H](Cc1ccc(O)cc1)NC(=O)[C@H](CC(=O)O)NC(=O)[C@H](CO)NC(=O)[C@@H](NC(=O)[C@](C)(Cc1ccccc1F)NC(=O)[C@@H](NC(=O)CNC(=O)[C@H](CCC(=O)O)NC(=O)C(C)(C)NC(=O)[C@@H](N)Cc1ccc(O)cc1)[C@@H](C)O)[C@@H](C)CC)C(=O)N[C@@H](C)C(=O)N[C@@H](CC(C)C)C(=O)N[C@@H](CC(=O)O)C(=O)N[C@@H](CCCCN)C(=O)N[C@@H](CCCCNC(=O)COCCOCCNC(=O)COCCOCCNC(=O)CC[C@H](NC(=O)CCCCCCCCCCCCCCCCCCC(=O)O)C(=O)O)C(=O)N[C@@H](Cc1c[nH]cn1)C(=O)N[C@@H](CCC(N)=O)C(=O)NC(C)(C)C(=O)N[C@@H](CC(=O)O)C(=O)N[C@@H](Cc1ccccc1)C(=O)N[C@H](C(=O)N[C@@H](CCC(=O)O)C(=O)N[C@@H](Cc1c[nH]c2ccccc12)C(=O)N[C@@H](CC(C)C)C(=O)N[C@@H](CC(C)C)C(=O)N[C@@H](CCC(=O)O)C(=O)N[C@H](C(=O)NCC(=O)N1CCC[C@H]1C(=O)N[C@@H](CO)C(=O)N[C@@H](CO)C(=O)NCC(=O)N[C@@H](C)C(=O)N1CCC[C@H]1C(=O)N1CCC[C@H]1C(=O)N1CCC[C@H]1C(=O)N[C@@H](CO)C(N)=O)[C@@H](C)O)C(C)C [Example 40] (H-Y[Aib]EGT[αMePhe(2-F)]ISDYSIALDKK([AEEA-AEEA-γGlu-C20 diacid])HQ[Aib]DFVEWLLETGPSSGAPPPS-NH2)	7.29
CC[C@H](C)[C@H](NC(=O)[C@H](CO)NC(=O)[C@H](Cc1ccc(O)cc1)NC(=O)[C@H](CC(=O)O)NC(=O)[C@H](CO)NC(=O)[C@@H](NC(=O)[C@](C)(Cc1ccccc1)NC(=O)[C@@H](NC(=O)CNC(=O)[C@H](CCC(=O)O)NC(=O)C(C)(C)NC(=O)[C@@H](N)Cc1ccc(O)cc1)[C@@H](C)O)[C@@H](C)CC)C(=O)N[C@@H](C)C(=O)N[C@@H](CC(C)C)C(=O)N[C@@H](CC(=O)O)C(=O)N[C@@H](CCCCN)C(=O)N[C@@H](CCCCNC(=O)COCCOCCNC(=O)COCCOCCNC(=O)CC[C@H](NC(=O)CCCCCCCCCCCCCCCCCCC(=O)O)C(=O)O)C(=O)N[C@@H](Cc1c[nH]cn1)C(=O)N[C@@H](CCC(N)=O)C(=O)NC(C)(C)C(=O)N[C@@H](CC(=O)O)C(=O)N[C@@H](Cc1ccccc1)C(=O)N[C@H](C(=O)N[C@@H](CCC(=O)O)C(=O)N[C@@H](Cc1ccncc1)C(=O)N[C@@H](CC(C)C)C(=O)N[C@@H](CC(C)C)C(=O)N[C@@H](CCC(=O)O)C(=O)N[C@H](C(=O)NCC(=O)N1CCC[C@H]1C(=O)N[C@@H](CO)C(=O)N[C@@H](CO)C(=O)NCC(=O)N[C@@H](C)C(=O)N1CCC[C@H]1C(=O)N1CCC[C@H]1C(=O)N1CCC[C@H]1C(=O)N[C@@H](CO)C(N)=O)[C@@H](C)O)C(C)C [Example 41] (H-Y[Aib]EGT[αMeF]ISDYSIALDKK([AEEA-AEEA-γGlu-C20 diacid])HQ[Aib]DFVE[4Pal]LLETGPSSGAPPPS-NH2)	6.12
CC[C@H](C)[C@H](NC(=O)[C@H](CO)NC(=O)[C@H](Cc1ccc(O)cc1)NC(=O)[C@H](CC(=O)O)NC(=O)[C@H](CO)NC(=O)[C@@H](NC(=O)[C@](C)(Cc1ccccc1)NC(=O)[C@@H](NC(=O)CNC(=O)[C@H](CCC(=O)O)NC(=O)C(C)(C)NC(=O)[C@@H](N)Cc1ccc(O)cc1)[C@@H](C)O)[C@@H](C)CC)C(=O)N[C@@H](C)C(=O)N[C@@H](CC(C)C)C(=O)N[C@@H](CC(=O)O)C(=O)N[C@@H](CCCCN)C(=O)N[C@@H](CCCCNC(=O)COCCOCCNC(=O)COCCOCCNC(=O)CC[C@H](NC(=O)CCCCCCCCCCCCCCCCCCC(=O)O)C(=O)O)C(=O)N[C@@H](Cc1c[nH]cn1)C(=O)N[C@@H](CCC(N)=O)C(=O)NC(C)(C)C(=O)N[C@@H](CC(=O)O)C(=O)N[C@@H](Cc1ccccc1)C(=O)N[C@H](C(=O)N[C@@H](CCC(=O)O)C(=O)N[C@@H](Cc1ccncc1)C(=O)N[C@@H](CC(C)C)C(=O)N[C@@H](CC(C)C)C(=O)N[C@@H](CCC(=O)O)C(=O)N[C@@H](CCC(N)=O)C(=O)NCC(=O)N1CCC[C@H]1C(=O)N[C@@H](CO)C(=O)N[C@@H](CO)C(=O)NCC(=O)N[C@@H](C)C(=O)N1CCC[C@H]1C(=O)N1CCC[C@H]1C(=O)N1CCC[C@H]1C(=O)N[C@@H](CO)C(N)=O)C(C)C [Example 42] (H-Y[Aib]EGT[αMeF]ISDYSIALDKK([AEEA-AEEA-γGlu-C20 diacid])HQ[Aib]DFVE[4Pal]LLEQGPSSGAPPPS-NH2)	7.00
CC[C@H](C)[C@H](NC(=O)[C@H](CO)NC(=O)[C@H](Cc1ccc(O)cc1)NC(=O)[C@H](CC(=O)O)NC(=O)[C@H](CO)NC(=O)[C@@H](NC(=O)[C@](C)(Cc1ccccc1)NC(=O)[C@@H](NC(=O)CNC(=O)[C@H](CCC(=O)O)NC(=O)C(C)(C)NC(=O)[C@@H](N)Cc1ccc(O)cc1)[C@@H](C)O)[C@@H](C)CC)C(=O)N[C@@H](C)C(=O)N[C@@H](CC(C)C)C(=O)N[C@@H](CC(=O)O)C(=O)N[C@@H](CCCCN)C(=O)N[C@@H](CCCCNC(=O)COCCOCCNC(=O)COCCOCCNC(=O)CC[C@H](NC(=O)CCCCCCCCCCCCCCCCCCC(=O)O)C(=O)O)C(=O)N[C@@H](Cc1c[nH]cn1)C(=O)N[C@@H](CCC(N)=O)C(=O)NC(C)(C)C(=O)N[C@@H](CC(=O)O)C(=O)N[C@@H](Cc1ccccc1)C(=O)N[C@H](C(=O)N[C@@H](CCC(=O)O)C(=O)N[C@@H](Cc1ccncc1)C(=O)N[C@@H](CC(C)C)C(=O)N[C@@H](CC(C)C)C(=O)N[C@@H](CCC(=O)O)C(=O)N[C@@H](C)C(=O)NCC(=O)N1CCC[C@H]1C(=O)N[C@@H](CO)C(=O)N[C@@H](CO)C(=O)NCC(=O)N[C@@H](C)C(=O)N1CCC[C@H]1C(=O)N1CCC[C@H]1C(=O)N1CCC[C@H]1C(=O)N[C@@H](CO)C(N)=O)C(C)C [Example 43] (H-Y[Aib]EGT[αMeF]ISDYSIALDKK([AEEA-AEEA-γGlu-C20 diacid])HQ[Aib]DFVE[4Pal]LLEAGPSSGAPPPS-NH2)	6.55
